Data: ChEMBL document CHEMBL3608256, “Strongylophorines, new protein tyrosine phosphatase 1B inhibitors, from the marine sponge Strongylophora strongilata collected at Iriomote Island” (Bioorg Med Chem Lett, 2015)

Target: T1, Tyrosine-protein phosphatase non-receptor type 1 (Homo sapiens, UniProt P18031)
T1 sequence (P18031 whole entry): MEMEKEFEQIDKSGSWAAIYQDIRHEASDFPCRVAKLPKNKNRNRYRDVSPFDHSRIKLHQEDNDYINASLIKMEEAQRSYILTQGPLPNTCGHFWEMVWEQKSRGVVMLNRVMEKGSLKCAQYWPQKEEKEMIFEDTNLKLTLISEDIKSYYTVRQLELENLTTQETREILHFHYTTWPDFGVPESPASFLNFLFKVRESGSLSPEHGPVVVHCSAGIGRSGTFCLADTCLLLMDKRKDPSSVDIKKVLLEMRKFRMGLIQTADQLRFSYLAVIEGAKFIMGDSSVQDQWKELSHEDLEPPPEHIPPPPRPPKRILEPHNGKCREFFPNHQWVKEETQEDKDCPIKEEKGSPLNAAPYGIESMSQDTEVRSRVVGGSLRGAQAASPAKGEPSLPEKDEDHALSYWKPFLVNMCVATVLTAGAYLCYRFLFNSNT
Assay: Inhibition of PTP1B (unknown origin) pre-incubated for 10 mins before addition of p-nitrophenyl phosphate substrate and measured 30 mins post substrate addition

Row | SMILES | IC50 [µM]
1 | CO[C@H]1OC[C@]23CCC[C@]1(C)[C@@H]2CC[C@]1(C)[C@@H]3CC[C@]2(C)Oc3ccccc3C[C@@H]12 | 8.5
2 | C[C@]12CCC[C@@]3(CO[C@@H]1O)[C@H]2CC[C@]1(C)[C@@H]3CC[C@]2(C)Oc3ccc(O)cc3C[C@@H]12 | 11.9
3 | C[C@@]12CC[C@@H]3[C@]4(CCC[C@@]3(C)C(=O)OC4)[C@H]1CC[C@]1(C)Oc3ccc(O)cc3C[C@@H]21 [strongylophorine-2] | > 24.4

More lines, in order of falling IC50, values ahead:

Row | IC50 [µM] | SMILES
4 | 21.2 | C[C@@]12CC[C@@H]3[C@]4(CCC[C@]3(C)C(=O)OC4)[C@H]1CC[C@](C)(O)[C@H]2Cc1cc(O)ccc1O [strongylophorine-8]
5 | 14.8 | C[C@]1(CO)CCC[C@@]2(CO)[C@H]1CC[C@]1(C)[C@@H]2CC[C@]2(C)Oc3ccc(O)cc3C[C@@H]12
6 | 9 | C[C@]12CCC[C@](C)(C(=O)O)[C@@H]1CC[C@]1(C)[C@@H]2CC[C@]2(C)Oc3ccc(O)cc3C[C@@H]12 [Strongylophorin-3]
7 | 8.7 | CCO[C@H]1OC[C@]23CCC[C@]1(C)[C@@H]2CC[C@]1(C)[C@@H]3CC[C@](C)(O)[C@H]1Cc1cc(O)ccc1O
